Source: patent US20210290581A1, “NEUROREGENERATION IMPROVED BY KETONE” (UNIVERSITY OF SOUTH FLORIDA, priority 2016, published 2021)

How the values were obtained:
[1] = tested on: rat primary neurons; assay: scratch assay in primary neuronal cell cultures followed for 24 hours with CytoSmart system; assay type: cell-based, Sprague Dawley rats; conditions: 2 mM
Method: Ketone bodies serve as alternative fuel for the brain when glucose availability is limited. In humans, BHB is synthesized in the liver from acetoacetate, the first ketone produced in the fasting state. Its biosynthesis is catalyzed by the enzyme beta-hydroxybutyrate dehydrogenase. The effect of ketone bodies on cell regeneration in primary neuronal cell cultures was tested by using a scratch assay that was followed for 24 hours with a CYTOSMART system.
(§1) Cortical neurons from embryonic (E18) Sprague Dawley rats were isolated and cultured as described in Katnic, Guerrero et al. 2006. Briefly, excised brains were digested with 0.25% trypsin. Isolated cells were suspended in DMEM supplemented with fetal bovine serum (FBS, 10%, heat inactivated), penicillin (100 IU/ml), streptomycin ([…]) and amphotericin B1 ([…]) (Antibiotic/Antimycotic) and plated on poly-L-lysine coated coverslips. Following 24 hour incubation, the DMEM solution was replaced with Neurobasal media supplemented with B-27 (10 ml) and 0.5 mM L-glutamine. 3 week old rat primary neurons were exposed to 2 mM R,S-Sodium-3-hydroxibutyrate. The cell monolayer was scraped with a P100 pipette tip to create a scratch. Cell debris was removed by washing with culture medium. 100 snapshots were taken of the cell migration/cell regeneration into the scratch space over 24 hours by CytoSmart system.

[2] = tested on: rat primary neurons; assay: immunofluorescence staining of the scratch assay (cell nuclei, Beta tubulin, synapsins); assay type: cell-based, Sprague Dawley rats; conditions: 2 mM; after 24 hours; 10×, 20×, 60×; compared to control
Method: as §1
The primary neurons underwent immunofluorescence staining. This fluorescence imaging on the scratch assay (after 24 hours/3-week old primary neurons) can be seen in FIGS. 6A-6B, 7A-7B, 8A-8B, and 9A-9B. The images have been lightened for illustrative purposes. Each of these figures includes four (4) images, labeled as I-IV. […]

With `CC(O)CC(=O)[O-].[Na+]` (centres unmarked) [R,S-Sodium-3-hydroxibutyrate] the “DAPI stained cell nuclei in the scratch space area” value ([1]; 24 hours, 20× (p=0.01) and 10× (p=0.0004) magnification, versus control) was “significantly more DAPI stained cell nuclei”, the “increase in cell coverage per 24 hours” value ([1]; 24 hours, control about 0.9%) was “about 3.3%” and the “cell migration and regeneration of the damaged area” value ([1]; over the 24-hour period, versus control) was “more intense cell migration and regeneration of the damaged area”. The “cell nuclei visible around the regeneration site and in the scratch area” value [2] was “More cell nuclei are visible around the regeneration site” and the “density of synapsins and tubulin at the regeneration site” value [2] was “higher density of synapsins and tubulin”.
